In paper PMC9917184, “Synthesis and Biological Evaluation of Potential Oncoimmunomodulator Agents” (International Journal of Molecular Sciences, 2023):
Read-outs that look alike come from different tables or passages of the source.

Experiments:
[1] = system: c-Myc gene expression; assay: c-Myc gene expression by RT-qPCR in MCF-7; type: cell-based, human; conditions: MCF-7, 100 µM, 48 h, control = 100
Experimental: We also studied the effect of compounds 3, 5, and 7 on both c-Myc and PD-L1 gene expression by RT-qPCR. For this study, we treated MCF-7 cells with 100 µM of the abovementioned compounds, and DMSO was used as a negative control and BMS-8 as a reference compound. After 48 h, cells were lysated, and after the extraction of their mRNA, a RT-pPCR assay was performed as described in the Experimental section.
MCF-7 cells at 70–80% confluence were collected, and 1.5 × 10^5 cells were placed in a six-well plate in 1.5 mL of medium. After 24h, cells were incubated with the corresponding compounds for 48 h. Cells were collected, and the total cellular RNA from MCF-7 cells was isolated using the Ambion RNA extraction kit according to the manufacturer’s instructions. The cDNA was synthesized by MMLV-RT with […] of extracted RNA and oligo(dT)15 according to the manufacturer’s instructions. Genes were amplified by a thermal cycler and StepOnePlus™ TaqMan® probes. TaqMan® Gene Expression Master Mix Fast containing the appropriate buffer for the amplification conditions, dNTPs, thermostable DNA polymerase enzymes, and a passive reference probe was used. To amplify each of the genes, the predesigned primers sold by Life Technologies TaqMan® Gene Expression Assays, Hs99999903-m1 (β-actin), Hs00153408-m1 (c-Myc), and Hs00204257-m1, (PD-L1) were used.

[2] = system: membrane VEGFR-2; assay: Membrane VEGFR-2 relative quantification by flow cytometry in cancer cells co-cultured with Jurkat T cells; type: cell-based, human; conditions: 100 μM, 24 h; for %VEGFR2 (membrane): relative to non-treated co-cultures
Experimental: (§1) We determined by flow cytometry the effect of these compounds on the expression of membrane PD-L1 in cancer cells when they were co-cultured with immune cells. Thus, interferon γ-stimulated cancer cells were treated for 24 h with the compounds at 100 μM in presence of Jurkat T cells. Then, cells were fixed and treated with anti-PD-L1 conjugated to AlexaFluor®647. We took advantage of the versatility of flow cytometry to simultaneously measure the expression of membrane VEGFR-2 by using anti-VEGFR-2 conjugated to fluorescein.
(§2) To study the effect of the compounds on every biological target in co-cultured cancer cell lines, the compounds were incubated for 24h as described before.
(§3) To detect membrane PD-L1 and VEGFR-2, after the cell treatments, they were collected, fixed with 4% in PBS paraformaldehyde, and stained with FITC Mouse monoclonal Anti-Human VEGFR-2 (ab184903) and Alexa Fluor® 647 Rabbit monoclonal Anti-PD-L1 (ab215251).

[3] = system: HT-29; assay: HT-29 cell viability in co-culture with Jurkat T cells (flow cytometry count); type: cell-based, human; conditions: 24 h; for viability at 100 µM: Homo sapiens, HT-29/Jurkat T co-culture, IFN-γ stimulated, read-out: percentage of living HT-29 cells relative to non-treated co-cultures
Experimental: (§4) The effect of the synthesized compounds on tumor cell proliferation in the presence of PD-1-expressing Jurkat T cells was also studied. This assay was carried out, as in the previous experiments, in the HT29, MCF7, and A549 cell lines (see Table 4). Interferon γ-stimulated cancer cells were treated for 24 h with the compounds at 100 μM in presence of Jurkat T cells. Then, cells were counted using flow cytometry. The percentage of living cells relative to non-treated co-cultures (control) was established for both cancer and immune cells in every co-culture.
(§5) To study the effect of the compounds on the cell viability in co-culture with Jurkat T cells or THP-1 cells, 10^5 or 2 × 10^5 of the corresponding cancer cells line per well were seeded and incubated for 24 h, then the medium was changed by one cell culture medium supplemented with IFN-γ (10 ng/mL; human, Invitrogen®) and containing 5 × 10^5 or 10^5 Jurkat T cells or THP-1, respectively, per well and 100 µM of the corresponding compound or DMSO for the […] control. After 24 h/48 h of incubation, supernatants were collected to determine Jurkat T or THP-1 living cells, and on the other hand, corresponding cancer cells were collected with trypsin. Both types of suspension cells were fixed with 4% in PBS paraformaldehyde and counted by flow cytometry.

[4] = system: Jurkat T cells; assay: Jurkat T cell viability in co-culture with cancer cells (flow cytometry count); type: cell-based; conditions: Homo sapiens, 24 h, read-out: percentage of living Jurkat cells relative to non-treated co-cultures
Experimental: as §4, §5

[5] = target: T1, membrane PD-L1 (Homo sapiens, UniProt Q9NZQ7); assay: Membrane PD-L1 relative quantification by flow cytometry in cancer cells co-cultured with Jurkat T cells; type: cell-based; conditions: 24 h; for remaining activity at 100 µM / inhibition at 100 µM: Jurkat; for remaining activity at 100 µM: relative to non-treated co-cultures, read-out: % PDL1 (membrane); for inhibition at 100 µM: read-out: membrane PD-L1 inhibition rate
T1 construct: Alexa Fluor® 647 Rabbit monoclonal Anti-PD-L1 (ab215251); endogenous in cells; host or cells: HT-29, MCF-7, A-549 (A17: MCF-7 only; A14: IFN-gamma-stimulated cancer cells co-cultured with Jurkat T cells)
T1 sequence (Q9NZQ7 19-290): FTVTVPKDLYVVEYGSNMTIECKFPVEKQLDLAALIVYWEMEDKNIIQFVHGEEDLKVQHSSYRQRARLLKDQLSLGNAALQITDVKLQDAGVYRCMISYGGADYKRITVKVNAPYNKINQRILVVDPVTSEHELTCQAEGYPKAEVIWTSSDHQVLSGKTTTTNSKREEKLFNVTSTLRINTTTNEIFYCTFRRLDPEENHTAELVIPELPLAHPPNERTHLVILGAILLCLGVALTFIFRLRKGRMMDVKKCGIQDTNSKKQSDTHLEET
Experimental: as §1, §2, §3

[6] = system: c-Myc; assay: Immunofluorescence microscopy of c-Myc in MCF-7; type: cell-based, human; conditions: MCF-7, 24 h of treatment
Source text: We also observed the effect of triazole derivatives 3, 5 and 7 on both targets in MCF-7 by immunofluorescence microscopy (see Figure 2). We stained both targets with anti-PD-L1 conjugated to AlexaFluor®647 (red in Figure 2), as well as anti-c-Myc conjugated to fluorescein (green in Figure 2), to determine the amount of both targets. The nucleus was stained with Hoechst (blue in Figure 2).
We observed that in the DMSO control, c-Myc was located in the nucleus of the cell and the nucleus membrane nearby, and PD-L1 was preferentially positioned in the membrane or cytosol, favoring the contact between surrounding cells.
For immunofluorescence microscopy of the microtubule network, […] cells were plated on cover glass and incubated with the selected compounds. Cells were then fixed in 4% formaldehyde (in PBS pH 7.4) for 20 min at room temperature and permeabilized with PBS-Triton X-100 0.5% for 1 min at room temperature. Direct immunostaining was carried out for 1 h at room temperature with FITC Mouse monoclonal Anti-c-Myc (ab223913) and Alexa Fluor® 647 Rabbit monoclonal Anti-PD-L1 (ab215251). Then, cells were washed in PBS, and cover glasses were mounted with a drop of ProLong® antifade solution (Invitrogen). The cytoskeleton was imaged by a confocal laser scanning microscope (CLSM) Leica SP5 with a Leica inverted microscope, equipped with 20x objective. Each image was recorded with the CLSM’s spectral mode selecting specific domains of the emission spectrum. The FITC fluorophore was excited at 488 nm with an argon laser, and its fluorescence emission was collected between 496 nm and 535 nm.

[7] = system: A-549; assay: A-549 cell viability in co-culture with Jurkat T cells (flow cytometry count); type: cell-based, human; conditions: 24 h; for viability at 100 µM: Homo sapiens, A549, A-549/Jurkat T co-culture, IFN-γ stimulated, read-out: percentage of living A-549 cells relative to non-treated co-cultures
Experimental: as §4, §5

[8] = A549 co-cultured with Jurkat T cells
[9] = HT29 co-cultured with Jurkat T cells
[10] = MCF7 co-cultured with Jurkat T cells
[11] = MCF-7 co-cultured with Jurkat T cells
[12] = A-549 co-cultured with Jurkat T cells
[13] = HT-29 co-cultured with Jurkat T cells
[14] = co-cultured with Jurkat T cells, 100 μM

SMILES | % c-Myc gene expression [1] | %VEGFR2 (membrane) [2, 8] | %VEGFR2 (membrane) [2, 9] | %VEGFR2 (membrane) [2, 10] | viability at 100 µM [3] | viability at 100 µM ([4]; A-549/Jurkat T co-culture) | viability at 100 µM ([4]; HT-29/Jurkat T co-culture) | viability at 100 µM ([4]; MCF-7/Jurkat T co-culture) | remaining activity at 100 µM [5, 8] | remaining activity at 100 µM [5, 9] | remaining activity at 100 µM [5, 10] | inhibition at 100 µM [5, 11] | c-Myc localisation (confocal images) [6] | viability at 100 µM [7] | also measured
COc1ccc(C(OCCc2ccc(CCn3cc(-c4cccc(Br)c4)nn3)cc2)(c2ccccc2)c2ccc(OC)cc2)cc1 [Compound 5, 1-(4-(2-(bis(4-methoxyphenyl)(phenyl)methoxy)ethyl)phenethyl)-4-(3-bromophenyl)-1H-1,2,3-triazole] | 33 ± 5% | 92 ± 2% | 85 ± 4% | 85 ± 4% | 68 ± 3% | 93 ± 9% | 48 ± 1% | 96 ± 8% | 115% | 153 ± 17% | 43 ± 6% | 60 to 70% | aggregated around the nucleus membrane | 105 ± 3% | –
COc1ccc(C(OCCc2ccc(CCn3cc(-c4ccccc4Br)nn3)cc2)(c2ccccc2)c2ccc(OC)cc2)cc1 [Compound 7, 1-(4-(2-(bis(4-methoxyphenyl)(phenyl)methoxy)ethyl)phenethyl)-4-(2-bromophenyl)-1H-1,2,3-triazole] | 12 ± 5% | 89 ± 5% | 93 ± 3% | 100 ± 0% | 52 ± 6% | 79 ± 11% | 70 ± 8% | 94 ± 12% | 73 ± 6% | 89 ± 4% | 50 ± 14% | 60 to 70% | aggregated in the nucleus of the cells | 100 ± 4% | –
COc1ccc(C(OCCc2ccc(CCn3cc(-c4ccc(Br)cc4)nn3)cc2)(c2ccccc2)c2ccc(OC)cc2)cc1 [Compound 3, 1-(4-(2-(bis(4-methoxyphenyl)(phenyl)methoxy)ethyl)phenethyl)-4-(4-bromophenyl)-1H-1,2,3-triazole] | 50 ± 7% | 73 ± 4% | 81 ± 7% | 81 ± 4% | 111 ± 5% | 86 ± 4% | 108 ± 33% | 75 ± 10% | 77 ± 4% | 80 ± 2% | 52 ± 9% | 60 to 70% | preferentially in the nucleus of the cells | 75 ± 7% | membrane VEGFR-2 inhibition rate [2, 12]: around 20%; membrane VEGFR-2 inhibition rate [2, 13]: around 20%; membrane VEGFR-2 inhibition rate [2, 11]: around 20%; inhibition rate of HT-29 cell viability [3, 14]: not active; inhibition at 100 µM [5, 12]: ~20%; inhibition at 100 µM [5, 13]: ~20%; membrane PD-L1 inhibition rate ([5]; MCF-7 co-cultured with Jurkat T cells, 100 μM): half; inhibition rate of A-549 cell viability [7, 14]: active
Cc1c(COc2ccc(CN3CCCCC3C(=O)O)cc2Br)cccc1-c1ccccc1 (stereo not drawn) [BMS-8, reference compound] | 30 ± 10% | 104 ± 9% | 63 ± 4% | 100 ± 2% | 34 ± 5% | 99 ± 9% | 148 ± 11% | 53 ± 27% | 103 ± 3% | 105 ± 3% | 97 ± 33% | – | not altered | 111 ± 9% | –
